The text below walks through data of patent US20240150377A1, “MODULATORS OF CYSTIC FIBROSIS TRANSMEMBRANE CONDUCTANCE REGULATOR” (VERTEX PHARMACEUTICALS INCORPORATED, priority 2020, published 2024).

pEC50: −log10 of the molar value. A value given as a limit tells only on which side of the number the result lay.

The test deals with T1, CFTR (Homo sapiens, UniProt P13569, DEL508-508).
T1 construct: endogenous in cells; host or cells: primary human bronchial epithelial cells from CF subjects (F508del/MF-HBE), differentiated at air-liquid interface
Put plainly: HBE2 assay: Ussing chamber assay of CFTR-mediated short-circuit currents. The format is cell-based. The conditions noted are these: F508del/MF-HBE cells, with 44 nM potentiator, 18-24 hours, 20% human serum; for Emax: read-out: HBE2 Max activity (%). The procedure, abridged: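 F508del/MF-HBE cultured >14 days at air-liquid interface, mounted in Ussing chambers; transepithelial short-circuit current recorded under voltage clamp (Vhold=0 mV) at 37 °C. CFTR-mediated ISC (μA/cm^2) taken as peak forskolin response relative to steady-state current after inhibition; corrector activity assessed this way.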

T1 sequence (P13569 with tags, fused parts or gaps DEL508-508): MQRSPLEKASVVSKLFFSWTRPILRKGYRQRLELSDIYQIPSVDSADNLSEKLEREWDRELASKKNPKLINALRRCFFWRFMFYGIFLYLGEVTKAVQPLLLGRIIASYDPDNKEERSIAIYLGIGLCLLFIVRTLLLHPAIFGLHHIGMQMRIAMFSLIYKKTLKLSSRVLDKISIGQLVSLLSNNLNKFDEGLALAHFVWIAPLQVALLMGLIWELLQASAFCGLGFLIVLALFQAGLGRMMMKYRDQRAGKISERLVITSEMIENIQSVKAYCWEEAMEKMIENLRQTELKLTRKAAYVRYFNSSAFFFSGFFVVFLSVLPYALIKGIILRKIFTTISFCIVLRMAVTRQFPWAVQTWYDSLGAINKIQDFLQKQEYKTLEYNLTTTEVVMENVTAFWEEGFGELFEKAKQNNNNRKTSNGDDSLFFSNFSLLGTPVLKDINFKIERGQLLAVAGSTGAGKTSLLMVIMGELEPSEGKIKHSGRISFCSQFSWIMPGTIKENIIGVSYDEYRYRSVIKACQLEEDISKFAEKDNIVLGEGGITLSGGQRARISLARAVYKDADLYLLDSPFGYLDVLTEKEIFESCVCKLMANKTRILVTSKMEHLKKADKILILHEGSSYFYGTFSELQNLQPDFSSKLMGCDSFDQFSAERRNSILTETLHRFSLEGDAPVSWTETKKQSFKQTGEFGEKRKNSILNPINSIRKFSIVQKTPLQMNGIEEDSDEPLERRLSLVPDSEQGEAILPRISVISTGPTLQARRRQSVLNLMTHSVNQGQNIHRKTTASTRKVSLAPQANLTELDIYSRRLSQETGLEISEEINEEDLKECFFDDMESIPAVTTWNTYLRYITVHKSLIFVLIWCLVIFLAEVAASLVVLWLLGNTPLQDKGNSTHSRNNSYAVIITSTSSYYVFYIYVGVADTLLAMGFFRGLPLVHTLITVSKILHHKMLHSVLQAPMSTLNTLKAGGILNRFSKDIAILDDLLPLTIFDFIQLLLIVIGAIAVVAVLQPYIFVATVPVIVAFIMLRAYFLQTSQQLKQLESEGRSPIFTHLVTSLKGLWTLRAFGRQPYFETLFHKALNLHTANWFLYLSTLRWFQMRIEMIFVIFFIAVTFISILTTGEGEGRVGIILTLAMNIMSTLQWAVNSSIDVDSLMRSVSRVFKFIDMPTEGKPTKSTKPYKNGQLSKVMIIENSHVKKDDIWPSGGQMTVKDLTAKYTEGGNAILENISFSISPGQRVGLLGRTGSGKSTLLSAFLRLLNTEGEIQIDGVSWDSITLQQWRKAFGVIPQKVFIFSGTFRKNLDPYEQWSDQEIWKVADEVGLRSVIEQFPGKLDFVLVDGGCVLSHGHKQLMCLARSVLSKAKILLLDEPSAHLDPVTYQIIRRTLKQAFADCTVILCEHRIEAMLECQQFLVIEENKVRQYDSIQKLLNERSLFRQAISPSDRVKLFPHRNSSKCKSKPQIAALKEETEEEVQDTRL

Consider `CNC(=O)CC1CCCN1c1cncc(CN2C(=O)c3cccc(c3)S(=O)(=O)Nc3nc(cc(-c4c(C)cccc4C)n3)OC[C@H]2CC(C)(C)C)n1` (some centres unmarked) [Compound 1657], for which the “HBE2 Activity at 3 μM (%)” value was “+++ (+++ is >60+)”.
In the case of `Cc1cccc(C)c1-c1cc2nc(n1)NS(=O)(=O)c1cccc(c1)C(=O)N(Cc1cncc(N3CCCC3CC(=O)N(C)C)n1)[C@H](CC(C)(C)C)CO2` (some centres unmarked) [Compound 1658], the “HBE2 Activity at 3 μM (%)” value is on record as “+++ (+++ is >60+)”.
Same read-out and setting: for `Cc1cccc(C)c1-c1cc2nc(n1)NS(=O)(=O)c1cccc(c1)C(=O)N(Cc1cncc(N3CCCC3C(=O)N(C)C)n1)[C@H](CC(C)(C)C)CO2` (some centres unmarked) [Compound 1660] the value was “+++ (+++ is >60+)”; for `CC(=O)N(C)CCN(C)c1cncc(CN2C(=O)c3cccc(c3)S(=O)(=O)Nc3nc(cc(-c4c(C)cccc4C)n3)OC[C@H]2CC(C)(C)C)n1` [Compound 1661], “+++ (+++ is >60+)”; for `Cc1cccc(C)c1-c1cc2nc(n1)NS(=O)(=O)c1cccc(c1)C(=O)N(Cc1cncc(N(C)CCN(C)C(=O)OC(C)C)n1)[C@H](CC(C)(C)C)CO2` [Compound 1662], “+++ (+++ is >60+)”.
In the case of `Cc1cccc(C)c1-c1cc2nc(n1)NS(=O)(=O)c1cccc(c1)C(=O)N(Cc1cncc(N(C)CCO)n1)[C@H](CC(C)(C)C)CO2` [Compound 1665], the “HBE2 Activity at 3 μM (%)” value is listed as “+++ (+++ is >60+)”.
As to `CNC(=O)OCCN(C)c1cncc(CN2C(=O)c3cccc(c3)S(=O)(=O)Nc3nc(cc(-c4c(C)cccc4C)n3)OC[C@H]2CC(C)(C)C)n1` [Compound 1666], the “HBE2 Activity at 3 μM (%)” value was “+++ (+++ is >60+)”.
For the molecule `Cc1cccc(C)c1-c1cc2nc(n1)NS(=O)(=O)c1cccc(c1)C(=O)N(Cc1cncc(N(C)CCOC(=O)N(C)C)n1)[C@H](CC(C)(C)C)CO2` [Compound 1667], the “HBE2 Activity at 3 μM (%)” value is listed as “+++ (+++ is >60+)”.
Take `Cc1cccc(C)c1-c1cc2nc(n1)NS(=O)(=O)c1cccc(c1)C(=O)N(Cc1cncc(N(C)C3CCC3)n1)[C@H](CC1(C)CC1)CO2` [Compound 1668]: the “HBE2 Activity at 3 μM (%)” value was “+++ (+++ is >60+)”; the pEC50 – broadly, −log10 of the EC50, conventionally taken in molar units – was > 6.00; the Emax is > 60%.
In the case of `Cc1cccc(C)c1-c1cc2nc(n1)NS(=O)(=O)c1cccc(c1)C(=O)N(Cc1cncc(N(C)C3CCC3)n1)[C@H](CC1CCC1)CO2` [Compound 1669], the “HBE2 Activity at 3 μM (%)” value is on record as “+++ (+++ is >60+)”, the pEC50 is > 6.00 and the Emax was > 60%.
The like results for `Cc1cccc(C)c1-c1cc2nc(n1)NS(=O)(=O)c1cccc(c1)C(=O)N(Cc1cncc(N(C)C3CCC3)n1)[C@H](CC1CC1)CO2` [Compound 1670] were, in that order, “+++ (+++ is >60+)”, > 6.00 and > 60%.
The like results for `Cc1cccc(C)c1-c1cc2nc(n1)NS(=O)(=O)c1cccc(c1)C(=O)N(Cc1cncc(N(C)C3CCC3)n1)[C@H](CC(C)C)CO2` [Compound 1671] were, in that order, “+++ (+++ is >60+)”, > 6.00 and > 60%.
For `CC[C@H](C)N(C)c1cncc(CN2C(=O)c3cccc(c3)S(=O)(=O)Nc3nc(cc(-c4c(C)cccc4C)n3)OC[C@H]2CC(C)(C)C)n1` [Compound 1673], the “HBE2 Activity at 3 μM (%)” value is “+++ (+++ is >60+)”, the pEC50 was > 6.00 and the Emax is > 60%.
Consider `Cc1cccc(C)c1-c1cc2nc(n1)NS(=O)(=O)c1cccc(c1)C(=O)N(Cc1cncc(N3C(=O)CC[C@H]3C)n1)[C@H](CC(C)(C)C)CO2` [Compound 1674], for which the “HBE2 Activity at 3 μM (%)” value is “+++ (+++ is >60+)”.
As for `Cc1cccc(C)c1-c1cc2nc(n1)NS(=O)(=O)c1cccc(c1)C(=O)N(Cc1nc(N(C)C3CCC3)cnc1C)[C@H](CC(C)(C)C)CO2` [Compound 1678], the “HBE2 Activity at 3 μM (%)” value is reported as “+++ (+++ is >60+)”.
Take `Cc1cccc(C)c1-c1cc2nc(n1)NS(=O)(=O)c1cccc(c1)C(=O)N(Cc1cncc(N3CCC[C@@H]4COC[C@@H]43)n1)[C@H](CC(C)(C)C)CO2` [Compound 1680]: the “HBE2 Activity at 3 μM (%)” value is reported as “+++ (+++ is >60+)”.
